PMC3274524, “In Vitro Pharmacological Characterization of RXFP3 Allosterism: An Example of Probe Dependency” (PLoS ONE, 2012)

What was measured:
dopamine transporter = molecular target: T1, dopamine transporter (Homo sapiens, UniProt Q01959); assay: radioligand binding selectivity panel (CEREP/in house), single concentration
T1 construct: gene SLC6A3

[1] = molecular target: T2, norepinephrine transporter (Homo sapiens, UniProt P23975); assay: as above
T2 construct: gene SLC6A2

[2] = molecular target: T3, RXFP3 (relaxin-3 receptor; GPCR135; SALPR) (Homo sapiens, UniProt Q9NSD7); assay: Ca2+ mobilization (FLIPR) agonist curve shift, allosteric ternary complex model; also increased […]R3/I5NH2 binding in membranes; assay type: cell-based
T3 construct: cloned human RXFP3 receptor, stably expressed in HEK-293 cells with GqI5; with Relaxin-3NH2 (amidated orthosteric agonist; also R3/I5NH2)
T3 sequence (Q9NSD7 1-469): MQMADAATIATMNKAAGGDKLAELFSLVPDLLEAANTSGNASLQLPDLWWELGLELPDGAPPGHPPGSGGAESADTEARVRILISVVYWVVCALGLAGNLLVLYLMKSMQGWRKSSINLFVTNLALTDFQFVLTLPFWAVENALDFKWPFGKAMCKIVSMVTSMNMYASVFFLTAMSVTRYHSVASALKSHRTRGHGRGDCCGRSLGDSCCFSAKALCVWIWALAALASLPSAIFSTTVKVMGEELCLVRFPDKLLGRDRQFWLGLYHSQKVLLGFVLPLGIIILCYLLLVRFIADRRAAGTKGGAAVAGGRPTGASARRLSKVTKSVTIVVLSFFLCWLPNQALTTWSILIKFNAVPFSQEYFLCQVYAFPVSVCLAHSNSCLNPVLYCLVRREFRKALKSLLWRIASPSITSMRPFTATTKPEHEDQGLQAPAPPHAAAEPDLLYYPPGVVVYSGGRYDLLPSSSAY

serotonin 5-HT1A = molecular target: T4, serotonin 5-HT1A (Homo sapiens, UniProt P08908); assay: radioligand binding selectivity panel (CEREP/in house), single concentration
T4 construct: gene HTR1A
T4 sequence (P08908 1-422): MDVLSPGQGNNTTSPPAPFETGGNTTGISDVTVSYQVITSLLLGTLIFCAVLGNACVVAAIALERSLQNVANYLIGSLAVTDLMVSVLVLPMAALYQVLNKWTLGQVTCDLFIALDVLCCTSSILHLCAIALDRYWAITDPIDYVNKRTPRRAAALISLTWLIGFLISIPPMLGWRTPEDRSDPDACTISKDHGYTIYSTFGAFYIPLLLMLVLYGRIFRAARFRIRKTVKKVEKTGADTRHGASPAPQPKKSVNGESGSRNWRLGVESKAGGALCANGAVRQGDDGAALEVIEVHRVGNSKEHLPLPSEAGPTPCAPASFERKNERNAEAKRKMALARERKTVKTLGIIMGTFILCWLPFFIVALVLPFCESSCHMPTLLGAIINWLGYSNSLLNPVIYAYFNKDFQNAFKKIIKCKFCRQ

T2 sequence (P23975 whole entry): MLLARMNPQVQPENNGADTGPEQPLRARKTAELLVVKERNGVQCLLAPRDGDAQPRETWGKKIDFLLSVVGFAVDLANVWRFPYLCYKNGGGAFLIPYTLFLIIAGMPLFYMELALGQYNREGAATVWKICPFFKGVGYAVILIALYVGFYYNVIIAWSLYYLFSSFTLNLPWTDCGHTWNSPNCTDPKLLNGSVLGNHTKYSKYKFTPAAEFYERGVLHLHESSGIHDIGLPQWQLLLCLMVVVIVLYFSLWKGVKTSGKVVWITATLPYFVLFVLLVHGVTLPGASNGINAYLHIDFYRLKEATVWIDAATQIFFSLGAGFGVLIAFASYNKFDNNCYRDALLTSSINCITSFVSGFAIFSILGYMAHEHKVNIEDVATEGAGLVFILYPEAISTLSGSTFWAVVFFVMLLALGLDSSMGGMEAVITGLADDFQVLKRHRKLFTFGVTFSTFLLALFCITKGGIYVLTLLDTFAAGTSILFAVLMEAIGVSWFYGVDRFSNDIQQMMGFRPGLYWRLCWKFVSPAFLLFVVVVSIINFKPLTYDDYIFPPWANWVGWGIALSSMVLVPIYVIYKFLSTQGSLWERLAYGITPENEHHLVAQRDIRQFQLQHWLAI
T1 sequence (Q01959 whole entry): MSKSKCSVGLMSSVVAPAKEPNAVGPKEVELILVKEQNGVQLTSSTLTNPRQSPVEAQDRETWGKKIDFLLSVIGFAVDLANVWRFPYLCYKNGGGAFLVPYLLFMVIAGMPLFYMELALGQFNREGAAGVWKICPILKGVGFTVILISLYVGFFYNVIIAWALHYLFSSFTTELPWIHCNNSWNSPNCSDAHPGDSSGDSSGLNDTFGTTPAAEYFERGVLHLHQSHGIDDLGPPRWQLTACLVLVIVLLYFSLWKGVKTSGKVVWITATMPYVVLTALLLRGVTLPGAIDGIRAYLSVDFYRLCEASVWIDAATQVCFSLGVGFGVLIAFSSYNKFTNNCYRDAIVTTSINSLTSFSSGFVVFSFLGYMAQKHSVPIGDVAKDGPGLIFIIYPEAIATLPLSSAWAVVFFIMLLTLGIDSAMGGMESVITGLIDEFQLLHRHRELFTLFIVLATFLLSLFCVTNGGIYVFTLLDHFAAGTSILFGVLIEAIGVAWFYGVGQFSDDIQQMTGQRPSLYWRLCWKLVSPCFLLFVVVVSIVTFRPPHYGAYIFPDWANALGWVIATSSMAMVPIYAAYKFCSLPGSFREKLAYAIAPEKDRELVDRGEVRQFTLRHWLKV

## COc1ccc2[nH]cc(CCN(Cc3ccc(Cl)c(Cl)c3)C(=O)Nc3cc(C(F)(F)F)cc(C(F)(F)F)c3)c2c1 [135PAM1, 3-[3,5-Bis(trifluoromethyl)phenyl]-1-(3,4-dichlorobenzyl)-1-[2-(5-methoxy-1H-indol-3-yl)ethyl]urea]
Dopamine transporter
  inhibition at 10 µM: 83%
[1]
  inhibition at 10 µM: 59%
[2]
  Kb: 355 nM
Serotonin 5-HT1A
  inhibition at 10 µM: 74%
